# Laboratory results from patent publication US20230250095A1, “BENZIMIDAZOLE DERIVATIVES, PREPARATION METHOD THEREFOR AND MEDICAL USE THEREOF” (TUOJIE BIOTECH(SHANGHAI) CO., LTD., priority 2020, published 2023).
# Assay: In vivo pharmacokinetic experiment in rats, intragastric administration
# Details: SD rats, 5 mg/kg
# Protocol: The drug concentrations in the plasma of the test animals (rats) at different time points after intragastric administration of the compound of the present disclosure were determined by an LC/MS/MS method. The pharmacokinetic behavior in rats of the compound of the present disclosure was studied and its pharmacokinetic profile was evaluated.
# Male, healthy SD rats of SPF grade, 6-8 weeks old, 3 rats in each group.
# Intragastric administration: a certain amount of compound was weighed and prepared into a 1 mg/mL white suspension by adding 0.5% by volume of hydroxypropyl methylcellulose, 0.1% by volume of tween 80 and 99.4% by volume of water.
# SD rats were administered intragastrically with compound 4 or BLU-5937 at a dose of 5 mg/kg after fasting overnight.
# Rats were administered intragastrically with the compound of the present disclosure. 0.2 mL of blood was collected from the jugular vein at 0.25 h, 0.5 h, 1 h, 2 h, 4 h, 8 h and 24 h after the administration, placed in a tube containing EDTA-K2, separated by centrifugation at 4° C. at 4000 rpm for 5 min to obtain plasma, which was stored at −75° C.
# Determination of the content of the test compounds at different concentrations in the plasma of rats after intragastric administration: 50 μL of rat plasma at each time point after the administration was taken, 200 μL of a solution of internal standard dexamethasone (50 ng/mL) in acetonitrile was added thereto, and the mixture was vortexed for 30 s to be mixed well, centrifuged at 4° C. at 4700 rpm for 15 min. The supernatant of the plasma sample was subjected to 3-fold dilution with water, and 2.0 μL of the dilution was taken for LC/MS/MS analysis.
structure (smiles),measurement,setting,value
"CC(=O)N1CCO[C@@H](Cn2c(-c3c(F)cc(N4CCCC4=O)cc3Cl)nc3cc(C)ccc32)C1 [Compound 4, (S)-1-(4-(1-((4-acetylmorpholin-2-yl)methyl)-5-methyl-1H-benzo[d]imidazol-2-yl)-3-chloro-5-fluorophenyl)pyrrolidin-2-one]",V,,2.05 L/kg
same,Tmax,"male, rat, plasma, po",25.2 min
same,half-life,"male, rat, plasma, po",57.6 min
same,AUC(0-t),"male, rat, po, plasma",408 ng·h/mL
same,Cmax,"male, rat, po, plasma",356 ng/mL
